Results as given in patent publication US9522888B2, “Substituted bicyclic compounds” (BRISTOL-MYERS SQUIBB COMPANY, priority 2014, dated 2016).

Experiments:
[1] = target: S1P3 (membranes prepared from EDG3-Gal5-bla HEK293T cells) (Homo sapiens (Human), UniProt Q99500); assay: Receptor [35S] GTPγS binding assay (S1P3 GTPγS); format: biochemical; conditions: phosphate examples; read-out: S1P3 GTPγS
Outline: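 Membranes (3 μg protein/well) from S1P1/CHO cells or EDG3-Gal5-bla HEK293T cells (S1P3) were incubated 45 min at room temperature with 0.2 nM final [35S]GTPγS in HEPES pH 7.5 buffer with 10 μM GDP, MgCl2 and saponin. Bound label counted after filtration; EC50 from 11-point, 3-fold dilutions.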

hS1P1/CHO cells = hS1P1/CHO cells (Homo sapiens (Human), UniProt P21453); assay: hS1P1 ERK phosphorylation (S1P1 pERK); format: cell-based; conditions: phosphate examples
Outline: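 CHO cells expressing human S1P1, serum-starved 2 h, exposed to compound in HBSS/20 mM HEPES for 7 min at 37° C. Lysates assayed for phospho-ERK by SureFire kit; response given as % activation relative to 10 μM S1P.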

human S1P1 = human S1P1 (Homo sapiens (Human), UniProt P21453); assay: S1P1 binding assay (33P-S1P radioligand competition, CHO cell membranes); conditions: phosphate examples; read-out: S1P1 Binding
Outline: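 Radioligand is 33P-S1P, competing for membranes from human S1P1-expressing CHO cells. Membranes resuspended in 50 mM HEPES pH 7.5, 100 mM NaCl, 1 mM MgCl2, 2 mM EDTA.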

[2] = target: S1P1 (membranes prepared from S1P1/CHO cells) (Homo sapiens (Human), UniProt P21453); assay: Receptor [35S] GTPγS binding assay (S1P1 GTPγS); format: biochemical; conditions: phosphate examples; read-out: S1P1 GTPγS
Outline: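 Membranes from S1P1-expressing CHO cells (3 μg protein/well) incubated with compound (11-point, 3-fold dilution) and 0.2 nM final [35S]GTPγS, 45 min at room temperature. Assay buffer: 20 mM HEPES pH 7.5, 10 mM MgCl2, 150 mM NaCl, 10 μM GDP, 0.1% fatty-acid-free BSA, 10 μg/ml saponin. Filter-bound radioactivity counted by scintillation; EC50 derived.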

Chain of S1P1 (membranes prepared from S1P1/CHO cells) (P21453 whole entry): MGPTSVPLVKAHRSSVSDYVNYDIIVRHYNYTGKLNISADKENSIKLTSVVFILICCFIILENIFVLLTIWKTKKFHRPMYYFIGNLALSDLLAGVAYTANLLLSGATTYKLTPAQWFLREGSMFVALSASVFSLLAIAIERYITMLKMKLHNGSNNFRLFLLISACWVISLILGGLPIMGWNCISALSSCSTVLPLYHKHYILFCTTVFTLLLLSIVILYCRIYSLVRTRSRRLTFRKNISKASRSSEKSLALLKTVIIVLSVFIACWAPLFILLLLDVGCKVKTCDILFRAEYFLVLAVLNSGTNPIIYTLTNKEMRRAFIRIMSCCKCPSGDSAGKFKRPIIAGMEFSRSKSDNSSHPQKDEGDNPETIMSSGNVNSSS
Chain of human S1P1 (P21453 whole entry): as above
Chain of hS1P1/CHO cells (P21453 whole entry): as above
Chain of S1P3 (membranes prepared from EDG3-Gal5-bla HEK293T cells) (Q99500 whole entry): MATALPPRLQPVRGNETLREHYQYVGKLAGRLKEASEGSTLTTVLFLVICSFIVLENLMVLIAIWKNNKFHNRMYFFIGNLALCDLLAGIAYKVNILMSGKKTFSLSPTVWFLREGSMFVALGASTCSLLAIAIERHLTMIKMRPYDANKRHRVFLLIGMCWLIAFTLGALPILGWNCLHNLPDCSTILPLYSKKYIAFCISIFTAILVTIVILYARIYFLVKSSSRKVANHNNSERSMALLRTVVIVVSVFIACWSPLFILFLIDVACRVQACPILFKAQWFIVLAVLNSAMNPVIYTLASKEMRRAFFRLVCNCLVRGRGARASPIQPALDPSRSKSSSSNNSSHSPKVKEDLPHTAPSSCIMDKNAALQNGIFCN

| EC50 [1] | EC50 (hS1P1/CHO cells) | IC50 (human S1P1) | EC50 [2] | Compound |
| --- | --- | --- | --- | --- |
| > 625 nM | < 10 nM | < 10 nM | 10 to 100 nM | N[C@]1(COP(=O)(O)O)CC[C@H](c2ccc3c(c2)CC[C@@H](CSCCc2ccncc2)C3)C1 [compound 525] |
| > 625 nM | < 10 nM | 10 to 100 nM | 10 to 100 nM | N[C@]1(COP(=O)(O)O)CC[C@H](c2ccc3c(c2)CC[C@H](CSCCc2cnccn2)C3)C1 [compound 526] |
| > 625 nM | < 10 nM | < 10 nM | < 10 nM | COc1ccccc1SC[C@@H]1CCc2cc([C@H]3CC[C@](N)(COP(=O)(O)O)C3)ccc2C1 [compound 527] |
| > 625 nM | 10 to 100 nM | 10 to 100 nM | 100 to 1000 nM | COc1cccc(SC[C@@H]2CCc3cc([C@H]4CC[C@](N)(COP(=O)(O)O)C4)ccc3C2)c1 [compound 528] |
| > 625 nM | < 10 nM | < 10 nM | 10 to 100 nM | COc1ccc(SC[C@@H]2CCc3cc([C@H]4CC[C@](N)(COP(=O)(O)O)C4)ccc3C2)cc1 [compound 529] |
| > 625 nM | 10 to 100 nM | 10 to 100 nM | < 10 nM | CC(C)c1ccccc1SC[C@@H]1CCc2cc([C@H]3CC[C@](N)(COP(=O)(O)O)C3)ccc2C1 [compound 530] |
| > 625 nM | 10 to 100 nM | 10 to 100 nM | 10 to 100 nM | COc1ccc(SC[C@@H]2CCc3cc([C@H]4CC[C@](N)(COP(=O)(O)O)C4)ccc3C2)cc1OC [compound 531] |
| > 625 nM | < 10 nM | < 10 nM | < 10 nM | CCCSC[C@H]1CCc2cc([C@H]3CC[C@](N)(COP(=O)(O)O)C3)ccc2C1 [compound 532] |
| > 625 nM | < 10 nM | < 10 nM | < 10 nM | CCSCC[C@@H]1CCc2cc([C@H]3CC[C@](N)(COP(=O)(O)O)C3)ccc2C1 [compound 533] |
| > 625 nM | 10 to 100 nM | < 10 nM | < 10 nM | CCCSCC[C@H]1CCc2cc([C@H]3CC[C@](N)(COP(=O)(O)O)C3)ccc2C1 [compound 534] |
| > 625 nM | < 10 nM | < 10 nM | < 10 nM | CCCSCC[C@@H]1CCc2cc([C@H]3CC[C@](N)(COP(=O)(O)O)C3)ccc2C1 [compound 535] |
| > 625 nM | < 10 nM | < 10 nM | 10 to 100 nM | CC(C)SCC[C@H]1CCc2cc([C@H]3CC[C@](N)(COP(=O)(O)O)C3)ccc2C1 [compound 536] |
| > 625 nM | < 10 nM | < 10 nM | < 10 nM | CC(C)SCC[C@@H]1CCc2cc([C@H]3CC[C@](N)(COP(=O)(O)O)C3)ccc2C1 [compound 537] |
| > 625 nM | < 10 nM | < 10 nM | < 10 nM | CC(C)CSCC[C@@H]1CCc2cc([C@H]3CC[C@](N)(COP(=O)(O)O)C3)ccc2C1 [compound 538] |
| > 625 nM | < 10 nM | < 10 nM | < 10 nM | CC(C)CSCC[C@H]1CCc2cc([C@H]3CC[C@](N)(COP(=O)(O)O)C3)ccc2C1 [compound 539] |
| > 625 nM | < 10 nM | < 10 nM | 100 to 1000 nM | COCC[C@@H]1CCc2cc([C@H]3CC[C@](N)(COP(=O)(O)O)C3)ccc2C1 [compound 540] |
| > 625 nM | < 10 nM | < 10 nM | 10 to 100 nM | CCOCC[C@@H]1CCc2cc([C@H]3CC[C@](N)(COP(=O)(O)O)C3)ccc2C1 [compound 541] |

| EC50 [1] | EC50 (hS1P1/CHO cells) | IC50 (human S1P1) | EC50 [2] | Compound |
| --- | --- | --- | --- | --- |
| > 625 nM | < 10 nM | 10 to 100 nM | 100 to 1000 nM | COc1cccc(OCC[C@@H]2CCc3cc([C@H]4CC[C@](N)(COP(=O)(O)O)C4)ccc3C2)c1 [compound 544] |
| > 625 nM | < 10 nM | 10 to 100 nM | 10 to 100 nM | COc1cccc(OCC[C@H]2CCc3cc([C@H]4CC[C@](N)(COP(=O)(O)O)C4)ccc3C2)c1 [compound 545] |
| > 625 nM | 10 to 100 nM | 100 to 1000 nM | 100 to 1000 nM | COc1ccc(C[C@@H]2CCc3cc([C@H]4CC[C@](N)(COP(=O)(O)O)C4)ccc3C2)c(C)c1 [compound 546] |
| > 625 nM | 10 to 100 nM | < 10 nM | 10 to 100 nM | CCOc1ccc(C[C@H]2CCc3cc([C@H]4CC[C@](N)(COP(=O)(O)O)C4)ccc3C2)cc1 [compound 547] |
| > 625 nM | < 10 nM | 10 to 100 nM | 10 to 100 nM | CCOc1cccc(C[C@H]2CCc3cc([C@H]4CC[C@](N)(COP(=O)(O)O)C4)ccc3C2)c1 [compound 548] |
| > 625 nM | < 10 nM | 100 to 1000 nM | 100 to 1000 nM | CCOc1ccc(C[C@@H]2CCc3cc([C@H]4CC[C@](N)(COP(=O)(O)O)C4)ccc3C2)cc1 [compound 549] |
| > 625 nM | < 10 nM | 10 to 100 nM | 10 to 100 nM | COCc1ccc(C[C@@H]2CCc3cc([C@H]4CC[C@](N)(COP(=O)(O)O)C4)ccc3C2)cc1 [compound 550] |
| > 625 nM | 10 to 100 nM | 10 to 100 nM | 10 to 100 nM | CCOc1cccc(C[C@@H]2CCc3cc([C@H]4CC[C@](N)(COP(=O)(O)O)C4)ccc3C2)c1 [compound 551] |
| > 625 nM | 10 to 100 nM | < 10 nM | 10 to 100 nM | COCc1cccc(C[C@@H]2CCc3cc([C@H]4CC[C@](N)(COP(=O)(O)O)C4)ccc3C2)c1 [compound 552] |
| > 625 nM | < 10 nM | 100 to 1000 nM | 100 to 1000 nM | COc1ccc(C[C@@H]2CCc3cc([C@H]4CC[C@](N)(COP(=O)(O)O)C4)ccc3C2)cc1OC [compound 553] |
| > 625 nM | 10 to 100 nM | < 10 nM | 10 to 100 nM | C=CCCCC[C@@H]1CCc2cc([C@H]3CC[C@](N)(COP(=O)(O)O)C3)ccc2C1 [compound 555] |
| > 625 nM | < 10 nM | 1000 to 10000 nM | < 10 nM | CC(C)=CCCC[C@@H]1CCc2cc([C@H]3CC[C@](N)(COP(=O)(O)O)C3)ccc2C1 [compound 556] |
| > 625 nM | 10 to 100 nM | 10 to 100 nM | 10 to 100 nM | N[C@]1(COP(=O)(O)O)CC[C@H](c2ccc3c(c2)CC[C@@H](CCCC2CCOCC2)C3)C1 [compound 557] |
| > 625 nM | < 10 nM | < 10 nM | < 10 nM | N[C@]1(COP(=O)(O)O)CC[C@H](c2ccc3c(c2)CC[C@@H](CCC2CCOCC2)C3)C1 [compound 558] |
| > 625 nM | 10 to 100 nM | 100 to 1000 nM | 100 to 1000 nM | CC(C)Oc1ccc(C[C@@H]2CCc3cc([C@H]4CC[C@](N)(COP(=O)(O)O)C4)ccc3C2)cc1 [compound 559] |
| > 625 nM | < 10 nM | 10 to 100 nM | < 10 nM | CC(C)Oc1cccc(C[C@@H]2CCc3cc([C@H]4CC[C@](N)(COP(=O)(O)O)C4)ccc3C2)c1 [compound 560] |
| > 625 nM | 10 to 100 nM | 100 to 1000 nM | 100 to 1000 nM | CN(C)CCCCC[C@@H]1CCc2cc([C@H]3CC[C@](N)(COP(=O)(O)O)C3)ccc2C1 [compound 561] |
